According to patent US9533023B2, “EIF4E binding peptides” (Agency for Science, Technology and Research, priority 2010, dated 2017):
Values belong to the molecule of their own block, whether it stands above or below them. Square brackets hold non-standard residues; d marks the D form. Ends that are not written are not given here. Ac5c = NC1(C(=O)O)CCCC1; Aib = CC(C)(N)C(=O)O

Columns and labels:
[1] = target: T1, eIF4E (Homo sapiens, UniProt P06730); assay: Fluorescence-based thermal stability (thermal shift) assay, FTS; type: binding; settings: for eIF4E binding / Tm effect in FTS assay: 10 μM eIF4E, 100 μM peptide
T1 construct: Full length human eIF4E was expressed and purified; made in house
T1 sequence (P06730 whole entry): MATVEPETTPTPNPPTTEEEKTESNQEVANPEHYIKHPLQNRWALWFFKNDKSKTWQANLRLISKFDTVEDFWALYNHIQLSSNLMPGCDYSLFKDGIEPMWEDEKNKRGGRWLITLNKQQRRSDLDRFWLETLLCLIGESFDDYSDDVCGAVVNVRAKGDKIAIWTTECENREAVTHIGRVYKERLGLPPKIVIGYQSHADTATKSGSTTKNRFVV
Text: Full length human eIF4E was expressed and purified as described in Brown, C.
A fluorescence based thermal shift assay was used to screen and rank the rationally designed eIF4E binding derivative peptides. The fluorescent dye Sypro Red was used to monitor thermal denaturation of eIF4E. Binding of the dye molecule to eIF4E, as it unfolds due to thermal denaturation, results in a sharp increase in the fluorescence intensity. The midpoint of this transition is termed the Tm. The thermal shift assay was conducted in the iCycler Real Time Detection System (Bio-Rad, Hercules, Calif.). The system contains a heating/cooling device for accurate temperature control and a charge-coupled device (CCD) detector for simultaneous imaging of the fluorescence changes in the wells of the microplate. […] The final protein concentration was 10 μM. Protein samples were incubated with derivative peptides at a concentration of a 100 μM. The plate was heated from 20 to 90° C. with a heating rate of 1° C./min.
where Ft is the fluorescence intensity at temperature T; Tm is the midpoint temperature of the protein-unfolding transition, Fpre and Fpost are the pretransitional and posttransitional fluorescence intensities, respectively, R is the gas constant, ΔHu is the enthalpy of protein unfolding, and ΔCpu is the heat capacity change on protein unfolding. In the absence of ligand, Tm=T0, ΔCpu=ΔC^T0pu, and ΔHu=ΔH^T0u.
To calculate the ligand-binding affinity at Tm for the derivative eIF4E binding peptides, Eq. (2) was used:
To compare binding affinities for the derivative peptides to eIF4E calculated from the thermal shift data, the binding affinity at temperature T (KL(T))) must be calculated. KL(T) can be calculated from KL(Tm) using Eq. (3A): […]
where KL(T) is the ligand association constant at temperature T, and ΔHL(T) is the van't Hoff enthalpy of binding at temperature T. The value of ΔHL(T) was taken to be 5 kcal/mol.

[2] = tested on: MCF-7 (5′UTR_MYC_Gaussia) cells; assay: Propidium iodide staining and FACS analysis; type: cell-based; settings: 48 hrs
Protocol: MCF-7 (5′UTR_MYC_Gaussia) cells were cultured in DMEM with 10% FCS. Two hundred fifty thousand cells were then seeded per well in 6-wells plates containing DMEM serum-free media overnight at 37° C. Before overnight incubation, cells were incubated at room temperature for 30 mins. […] A 1% DMSO and a PBS mock treatment was also carried out. Cells were harvested and fixed in 65% ethanol in PBS and incubated at 4° C. for 2 hrs. Cells were spun down and resuspended with Propidium iodide staining solution containing Rnase A. Cells were analyzed using LSR II (BD).

[3] = tested on: MCF-7 5′UTR_MYC_Gaussia reporter cell line; assay: Cap-dependent translation cell-based assay (Gaussia luciferase); settings: 6 hours
Protocol: To determine the efficacy of these peptides, a cell-based system to assay changes in cap-dependent translation was designed. […] A reporter line derived from the MCF-7 cell line that stably expresses the 5′UTR_MYC_Gaussia reporter was generated. The robustness of this model system was determined using rapamycin, which inhibits cap-dependent translation by inhibiting mTOR from phosphorylating 4EBPs.
MCF-7 (5′UTR_MYC_Gaussia) cells were cultured in DMEM with 10% FCS. Twenty thousand cells were then seeded per well in 48-wells plates in DMEM serum-free media overnight at 37° C. […] Cells were then cultured in media containing 10% FCS with Rapamycin for 24 hrs and at concentrations of 100 nM, 10 nM, 1 nM, 0.1 nM. Gaussia-Luc activities in cells were measured using Gaussia Luciferase Assay Kit (NEB) with SpectraMax M5 (molecular Devices).

[4] = tested on: MCF-7 (5′UTR_MYC_Gaussia) cells; assay: WST-1 assay (cell viability); type: cell-based; settings: 30 μM, 48 hours after treatment
Protocol: MCF-7 (5′UTR_MYC_Gaussia) cells were cultured in DMEM with 10% FCS. Twenty thousand cells were then seeded per well in 48-wells plates in DMEM serum-free media overnight at 37° C. Before overnight incubation, cells were incubated at room temperature for 30 mins. […] After 48 hrs of treatment, MCF-7 cells were incubated with Cell Proliferation Reagent WST-1(Roche) for 30 mins at 37° C. Absorbances of cell media were then read at 450 nm with SpectraMax M5.

[5] = tested on: MCF-7 cells; assay: Annexin staining, flow cytometry; type: cell-based; settings: 30 μM, 48 hours
Protocol: MCF-7 cells were cultured in DMEM with 10% FCS. Two hundred fifty thousand cells were then seeded per well in 6-wells plates containing DMEM serum-free media overnight at 37° C. […] A mock PBS treatment was also included. Cells were harvested, washed in PBS and spun down at 200 g for 5 mins. Cell pellets were resuspended in Annexin-VFLUOS labeling solution from Roche and incubated for 10-15 min at 15-25° C. Cells were then analyzed using LSR II (BD).

[6] = tested on: endogenous c-myc in MCF-7 cells; assay: Western blot of endogenous c-myc; type: cell-based; settings: 15 μM peptide, 6 hours, vs PBS
Protocol: MCF-7 cells were cultured in DMEM with 10% FCS. Three hundred fifty thousand MCF-7 cells were then seeded per well in 6-wells plates containing DMEM serum-free media overnight at 37° C. […] A mock PBS treatment was also included. Cells were harvested at 6 hrs and lysed in RIPA buffer. Protein concentration was determined using a Lowry Assay kit (Bio-rad). Samples were loaded at 30 ug and blotted against monoclonal antibody c-myc (Sigma Aldrich #M4439). B-actin was blotted for as a loading control.

eIF4E binding / Tm effect in FTS assay [1]: significantly increased
Molecule: CC(C)C[C@H](NC(=O)[C@H](Cc1ccccc1)NC(=O)[C@H](CCC(=O)O)NC(=O)[C@H](CCCNC(=N)N)NC(=O)[C@H](CC(=O)O)NC(=O)[C@@H](N)Cc1ccc(O)cc1)C(=O)N[C@@H](CC(C)C)C(=O)NC1(C(=O)N[C@@H](Cc2ccccc2)C(=O)N[C@@H](CCC(N)=O)C(=O)N[C@@H](Cc2ccccc2)C(=O)O)CCCC1 [Tr2_AIB3_A5C, YDREFLL5FQF]

Molecule: GTKKRYDRE*LL5FQF [GT_eIF4G1_me5]
cell cycle populations (sub G1, G1, S, G2), words ([2]; non TAT peptides 400 μM, vs DMSO control): significant increase in the sub G1 population | inhibition of cap-dependent translation (luciferase output) ([3]; 100 μM and 200 μM): some biological activity in a dose responsive manner | inhibition of cap-dependent translation (luciferase output) ([3]; non-TAT peptides, 400 μM): significant decrease in luciferase output | WST-1 assay, difference versus control peptide [4]: marginally significant

Molecule: GT_eIF4G1: eIF4G1 14mer with N-terminal GT linker, no TAT (GTKKRYDREFLLGFQF; not fully specified (C-terminus))
luciferase activity, difference versus control peptide ([3]; 30 μM): no significant difference | WST-1 assay, difference versus control peptide [4]: not significant

drop in thermal shift from AC14 to AC13 ([1]; difference vs AC14): ~2.1 °C
Molecule: KRYDRE*LL5FQF [AC13]
inhibition of cap-dependent translation (luciferase output) ([3]; non-TAT peptides, 400 μM): noticeable drop in activity

eIF4E binding / Tm effect in FTS assay [1]: all eIF4E binding is lost
Molecule: SEQ ID NO: 20: 11mer control peptide with the conserved tyrosine mutated to alanine (ADREFLLGFQF; Control) [reference compound]

Molecule: SEQ ID NO: 29: Tr2_AIB3_A5C with alanine at position 625 (YAREFLL[Ac5c]FQF; not fully specified (C-terminus))
eIF4E binding / Tm effect in FTS assay [1]: no significant increase or decrease in potency

Molecule: SEQ ID NO: 31: Tr2_AIB3_A5C with alanine at position 627 (YDRAFLL[Ac5c]FQF; not fully specified (C-terminus))
eIF4E binding / Tm effect in FTS assay [1]: no significant increase or decrease in potency

Molecule: TAT_eIF4G1_Cntrl: control peptide equivalent to TAT_eIF4G1 (YGRKKRRQRRRGTKKRADREFAAGFQF; TAT_eIF4G1_Cntrl)
annexin staining of cells (apoptosis) [5]: few cells that could be stained | cell cycle populations (sub G1, G1, S, G2), words ([2]; TAT fused peptides 30 μM, vs PBS mock): no substantive differences | endogenous c-myc expression [6]: identical

eIF4E binding / Tm effect in FTS assay [1]: severely attenuated peptide binding
Molecule: Tr2_AIB1: Tr2 peptide with D625 replaced by aminoisobutyric acid (Aib) (Y[Aib]REFLLGFQF)

eIF4E binding / Tm effect in FTS assay [1]: abolished measurable peptide binding
Molecule: Tr2_AIB2: Tr2 peptide with E627 replaced by Aib (YDR[Aib]FLLGFQF)

eIF4E binding / Tm effect in FTS assay [1]: increased the Tm
Molecule: Tr2_AIB3: Tr2 peptide with G631 replaced by Aib (YDREFLLXFQF; Aib at position 631; Tr2_AIB3)

eIF4E binding / Tm effect in FTS assay [1]: severely attenuated peptide binding
Molecule: Tr2_AIB4: Tr2 peptide with Q633 replaced by Aib (YDREFLLGF[Aib]F)

Molecule: YGRKKRRQRRR [TAT, reference compound]
annexin staining of cells (apoptosis) [5]: few cells that could be stained | inhibition of cap-dependent translation (luciferase output) ([3]; TAT peptides, up to 100 μM): not inhibited by TAT alone with only a slight decrease at 100 μM | eIF4E binding / Tm effect in FTS assay [1]: no binding | endogenous c-myc expression [6]: identical
